# Measurements taken from ChEMBL document CHEMBL1150541, “Penem inhibitors of bacterial signal peptidase” (Bioorg Med Chem Lett, 1995).
# Where a SMILES comes first, the peptide text is derived from it.
# What was measured:
# [1] = tested on: Escherichia coli; experiment: Compound was evaluated for Michaelis-Menten constant (Km)
# [2] = biological target: Signal peptidase I (Escherichia coli K-12, UniProt P00803); experiment: Inhibitory activity against Escherichia coli leader peptidase using substrate A; conditions: read-out: I50
# [3] = biological target: Signal peptidase I (Escherichia coli K-12) (UniProt P00803); experiment: Inhibitory activity against Escherichia coli leader peptidase at a concentration of 100 uM
# [4] = Inhibitory activity against Escherichia coli leader peptidase using substrate B; conditions: read-out: I50
# [5] = tested on: Escherichia coli; conditions: 100 uM
# [6] = Inhibitory activity against Escherichia coli leader peptidase using substrate A.; conditions: read-out: I50
# Sequence of Signal peptidase I (Escherichia coli K-12) (P00803 whole entry): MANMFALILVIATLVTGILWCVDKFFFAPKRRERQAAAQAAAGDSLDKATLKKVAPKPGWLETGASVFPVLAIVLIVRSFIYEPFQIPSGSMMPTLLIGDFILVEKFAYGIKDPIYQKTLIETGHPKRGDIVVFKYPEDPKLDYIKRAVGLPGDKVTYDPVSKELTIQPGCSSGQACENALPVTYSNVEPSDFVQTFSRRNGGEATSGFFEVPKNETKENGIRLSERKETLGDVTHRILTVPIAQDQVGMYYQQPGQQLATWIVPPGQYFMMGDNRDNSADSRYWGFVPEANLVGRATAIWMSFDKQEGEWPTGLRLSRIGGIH
# Sequence of Signal peptidase I (P00803 whole entry): as above
IC50 [2] [µM],inhibition [3] [%],Structure (SMILES),other results
13,83,O=C(OCCCCc1ccccc1)C1=CSC2CC(=O)N12 (stereo not drawn),–
8,72,COC(=O)c1cccc(COC(=O)C2=CSC3CC(=O)N23)c1 (stereo not drawn),–
3,100,O=C(OCc1ccccc1)C1=CS[C@H]2CC(=O)N12,–
3,100,COC(=O)c1ccc(COC(=O)C2=CSC3CC(=O)N23)cc1 (stereo not drawn),–
–,34,O=C(NCc1ccccc1)C1=CSC2CC(=O)N12 (stereo not drawn),–
10,–,O=C(OCc1ccccc1)C1=CSC2CC(=O)N12 (stereo not drawn),inhibition [5]: 100%
–,0,CC(C)(C)NC(=O)C1=CSC2CC(=O)N12 (stereo not drawn),–
87,77,COc1ccc(NC(=O)C2=CSC3CC(=O)N23)cc1 (stereo not drawn),–
–,31,O=C(OCc1ccc(C(=O)O)cc1)C1=CSC2CC(=O)N12 (stereo not drawn),–
7,100,COc1ccc(COC(=O)C2=CSC3CC(=O)N23)cc1 (stereo not drawn),–
50,88,CN(Cc1ccccc1)C(=O)C1=CSC2CC(=O)N12 (stereo not drawn),–
600,0,O=C(O)C1=CSC2CC(=O)N12 (stereo not drawn),–
–,0,O=C(OCc1ccccc1)C1=CS[C@@H]2CC(=O)N12,–
4,100,COC(=O)C1=CSC2CC(=O)N12 (stereo not drawn),–
58,86,O=C(Nc1ccccc1)C1=CSC2CC(=O)N12 (stereo not drawn),–
–,0,COc1ccc(COC(=O)C2=CS[C@@H]3CC(=O)N23)cc1,–

# The next lines start with the compound.
Structure (SMILES),IC50 [2] [µM],inhibition [3] [%],other results
CC[C@H](C)[C@H](NC(=O)[C@H](CCCCN)NC(=O)[C@H](C)NC(=O)[C@H](CC(C)C)NC(=O)[C@H](C)NC(=O)[C@H](CO)NC(=O)[C@H](C)NC(=O)[C@H](CO)NC(=O)[C@@H](N)Cc1ccccc1)C(N)=O (H-FSASALAKI-NH2),–,–,Km [1]: 1000 µM
O=C(OCc1ccc([N+](=O)[O-])cc1)C1=CSC2CC(=O)N12 (stereo not drawn),50,85,–
C=CCOC(=O)C1=CS[C@@H]2[C@@H]([C@@H](C)OC(C)=O)C(=O)N12,–,64,–
C=CCOC(=O)C1=CS[C@@H]2[C@@H]([C@H](C)OC(C)=O)C(=O)N12,–,0,–
O=C(C1=CSC2CC(=O)N12)N1CCOCC1 (stereo not drawn),115,79,–
C=CCOC(=O)C1=CS[C@H]2[C@@H]([C@@H](C)OC(C)=O)C(=O)N12 [listing 1 of 3 here],0.85,–,IC50 [4]: 0.07 µM
C=CCOC(=O)C1=CS[C@H]2[C@@H]([C@H](C)OC(C)=O)C(=O)N12,–,0,–
CCCCCCCCCCCCCCCCOC(=O)C1=CSC2CC(=O)N12 (stereo not drawn),–,0,–
C=CCOC(=O)C1=CSC2CC(=O)N12 (stereo not drawn),10,93,–
COCOC(=O)C1=CSC2CC(=O)N12 (stereo not drawn),6,100,–
CCN(CC)C(=O)C1=CSC2CC(=O)N12 (stereo not drawn),58,86,–
C=CCOC(=O)C1=CS[C@H]2[C@@H](CC)C(=O)N12,20,84,–
C=CCOC(=O)C1=CS[C@H]2[C@@H]([C@@H](C)O)C(=O)N12,0.92,100,IC50 [4]: 0.18 µM
CC[C@H](C)[C@H](NC(=O)[C@H](CCCCN)NC(=O)[C@H](C)NC(=O)[C@H](CC(C)C)NC(=O)[C@H](C)NC(=O)[C@H](CO)NC(=O)[C@H](C)NC(=O)[C@H](CO)NC(=O)[C@@H](N)Cc1c[nH]c2ccccc12)C(N)=O (H-WSASALAKI-NH2),–,–,Km [1]: 300 µM
C=CCOC(=O)C1=CS[C@@H]2[C@@H](CC)C(=O)N12,–,19,–
C=CCOC(=O)C1=CS[C@H]2[C@@H]([C@@H](C)OC(C)=O)C(=O)N12 [listing 2 of 3 here],1.8,–,–
O=C(C1=CSC2CC(=O)N12)N1CCCC1 (stereo not drawn),–,93,IC50 [6]: 10 µM
C=CCOC(=O)C1=CS[C@H]2[C@@H]([C@@H](C)OC(C)=O)C(=O)N12 [listing 3 of 3 here],–,100,–
C=CCOC(=O)C1=CS[C@@H]2[C@H]([C@H](C)OC(C)=O)C(=O)N12,–,20,–
CCCCCOC(=O)C1=CSC2CC(=O)N12 (stereo not drawn),21,100,–
